Results published in ChEMBL document CHEMBL4680289, “10-(4-Phenylpiperazine-1-carbonyl)acridin-9(10H)-ones and related compounds: Synthesis, antiproliferative activity and inhibition of tubulin polymerization” (Bioorg Med Chem Lett, 2021).
Calls of active or inactive are those of the source. The calls are words filed in the database; no cut-off is given here.

Tests used:
K562 [1] = test: Antiproliferative activity against human K562 cells assessed as cell growth inhibition measured after 48 hrs by MTT assay; format: functional, cell-based; settings: K562, 48 h
[2] = Inhibition of porcine brain tubulin polymerization assessed as reduction in tubulin assembly at 37 degreeC measured after 40 mins in presence of GTP by turbidimetric analysis; design: species or system Sus scrofa
[3] = biological target: T1, Tubulin beta (Homo sapiens) (UniProt P68371+Q9H4B7+Q13509+P04350+Q3ZCM7+P07437+Q13885+Q9BVA1+Q9BUF5+A6NNZ2); test: Inhibition of N,N'-Ethylenebis(iodoacetamide) binding to beta-tubulin colchicine binding site in human K562 cells assessed as reduction in EBI/beta-tubulin adduct formation at 1 to 10 uM preincubated for 2.5 hrs followed by EBI addition and measured after 1.5 hrs by Western blot analysis; format: cell-based; settings: dose 1-10 µM, time 4.0 hrs
K562 [4] = test: Cell cycle arrest in human K562 cells assessed as increase in cell accumulation at G2/M phase at < 30 nM measured after 18 hrs by propidium iodide/RNase FACSCalibur staining based flow cytometry; format: functional; settings: dose nM <30, time 18.0 hrs
K562 [5] = test: Cell cycle arrest in human K562 cells assessed as increase in cell accumulation at G2/M phase measured after 18 hrs by propidium iodide/RNase FACSCalibur staining based flow cytometry; format: functional; settings: dose 0.003-1 µmol/L
SK-N-AS = test: Antiproliferative activity against human SK-N-AS cells assessed as cell growth inhibition measured after 72 hrs by sulforhodamine B assay; format: functional
[6] = Cytotoxicity against human IMR-90 cells assessed as cell growth inhibition measured after 72 hrs by sulforhodamine B assay; format: cell-based
BXPC-3 = test: Antiproliferative activity against human BXPC-3 cells assessed as cell growth inhibition measured after 72 hrs by sulforhodamine B assay; format: functional
MG-63 = test: Antiproliferative activity against human MG-63 cells assessed as cell growth inhibition measured after 72 hrs by sulforhodamine B assay; format: functional
HT-1080 = test: Antiproliferative activity against human HT-1080 cells assessed as cell growth inhibition measured after 72 hrs by sulforhodamine B assay; format: functional
5637 = test: Antiproliferative activity against human 5637 cells assessed as cell growth inhibition measured after 72 hrs by sulforhodamine B assay; format: functional
HT-29 = test: Antiproliferative activity against human HT-29 cells assessed as cell growth inhibition measured after 72 hrs by sulforhodamine B assay; format: functional
PANC-1 = test: Antiproliferative activity against human PANC-1 cells assessed as cell growth inhibition measured after 72 hrs by sulforhodamine B assay; format: functional
[7] = Antiproliferative activity against human RDES cells assessed as cell growth inhibition measured after 72 hrs by sulforhodamine B assay; format: functional; settings: RD-ES
Ramos = test: Antiproliferative activity against human Ramos cells assessed as cell growth inhibition measured after 72 hrs by sulforhodamine B assay; format: functional
DU-145 = test: Antiproliferative activity against human DU-145 cells assessed as cell growth inhibition measured after 72 hrs by sulforhodamine B assay; format: functional
L-363 = test: Antiproliferative activity against human L-363 cells assessed as cell growth inhibition measured after 72 hrs by sulforhodamine B assay; format: functional
MV4-11 = test: Antiproliferative activity against human MV4-11 cells assessed as cell growth inhibition measured after 72 hrs by sulforhodamine B assay; format: functional
NCI-H460 = test: Antiproliferative activity against human NCI-H460 cells assessed as cell growth inhibition measured after 72 hrs by sulforhodamine B assay; format: functional
SNB-75 = test: Antiproliferative activity against human SNB-75 cells assessed as cell growth inhibition measured after 72 hrs by sulforhodamine B assay; format: functional
Ca-Ski = test: Antiproliferative activity against human Ca-Ski cells assessed as cell growth inhibition measured after 72 hrs by sulforhodamine B assay; format: functional
[8] = Cytotoxicity against human PBMC cells assessed as cell growth inhibition measured after 72 hrs by sulforhodamine B assay; format: cell-based
[9] = biological target: T1, Tubulin beta (Homo sapiens); test: Inhibition of N,N'-Ethylenebis(iodoacetamide) binding to beta-tubulin colchicine binding site in human K562 cells assessed as reduction in EBI/beta-tubulin adduct formation preincubated for 2.5 hrs followed by EBI addition and measured after 1.5 hrs by Western blot analysis relative to control; format: cell-based; settings: time 4.0 hrs, concentration not given here
K562 [10] = test: Induction of apoptosis in human K562 cells at 3 uM measured after 48 hrs by Annexin V-FITC/7-AAD staining based flow cytometric analysis; format: functional, cell-based
K562 [11] = test: Induction of apoptosis in human K562 cells at 30 nM measured after 48 hrs by Annexin V-FITC/7-AAD staining based flow cytometric analysis; format: functional, cell-based

Row | Compound | IC50 (K562 [1]) | IC50 [2] | further results
1 | COc1ccccc1N1CCN(C(=O)n2c3ccccc3c(=O)c3ccccc32)CC1 | 55 nM | 530 nM | –
2 | COc1ccc(C(=O)n2c3ccccc3c(=O)c3ccccc32)cc1OC | > 10000 nM | > 10000 nM | –
3 | COc1ccccc1N1CCN(C(=O)n2c3ccccc3c(=O)c3cc(N)ccc32)CC1 | 1300 nM | 3100 nM | –
4 | COc1ccccc1N1CCN(C(=O)n2c3ccccc3c(=O)c3cccnc32)CC1 | 190 nM | 1340 nM | –
5 | COc1cccc(N2CCN(C(=O)n3c4ccccc4c(=O)c4ccccc43)CC2)c1 | 26 nM | 330 nM | inhibition [3]: Active; Activity (K562 [4]): Active; Activity (K562 [5]): Dose-dependent effect; GI50 (SK-N-AS): 1.3 nM; GI50 at 72 h [6]: 1.4 nM; GI50 (BXPC-3): 1.9 nM; GI50 (MG-63): 2 nM; GI50 (HT-1080): 2.1 nM; GI50 5637: 2.1 nM; GI50 (HT-29): 2.1 nM; GI50 (PANC-1): 2.1 nM; GI50 [7]: 29.8 nM; GI50 (Ramos): 18 nM; GI50 (DU-145): 17.9 nM; GI50 (L-363): 14.8 nM; GI50 (MV4-11): 13.5 nM; GI50 (NCI-H460): 13.2 nM; GI50 (SNB-75): 12.4 nM; GI50 (Ca-Ski): 12.3 nM; GI50 at 72 h [8]: > 10 µM
6 | COc1ccc(C(=O)n2c3ccccc3c(=O)c3ccccc32)cc1OCc1ccccc1 | > 10000 nM | > 10000 nM | –
7 | COc1cccc(N2CCN(C(=O)n3c4ccccc4c(=O)c4cc(OC)ccc43)CC2)c1 | 330 nM | 820 nM | –
8 | O=C(N1CCN(c2cccc(F)c2)CC1)n1c2ccccc2c(=O)c2ccccc21 | 89 nM | 710 nM | –
9 | COc1ccc2c(c1)c(=O)c1cc(C#N)ccc1n2C(=O)N1CCN(c2ccccc2OC)CC1 | > 10000 nM | > 10000 nM | –
10 | COc1ccc(OC)c(N2CCN(C(=O)n3c4ccccc4c(=O)c4ccccc43)CC2)c1 | 60 nM | 440 nM | –
11 | COc1ccc(N2CCN(C(=O)n3c4ccccc4c(=O)c4ccccc43)CC2)c(OC)c1 | 3000 nM | 4700 nM | –
12 | O=C(N1CCN(c2ccc([N+](=O)[O-])cc2)CC1)n1c2ccccc2c(=O)c2ccccc21 | > 10000 nM | > 10000 nM | –
13 | Nc1cccc(N2CCN(C(=O)n3c4ccccc4c(=O)c4ccccc43)CC2)c1 | 900 nM | 1300 nM | –
14 | COc1cccc(N2CCN(C(=O)n3c4ccccc4c(=O)c4cc([N+](=O)[O-])ccc43)CC2)c1 | > 10000 nM | 4200 nM | –
15 | O=C(N1CCN(c2cccc(Br)c2)CC1)n1c2ccccc2c(=O)c2ccccc21 | 39 nM | 690 nM | –
16 | COc1ccc(C(=O)n2c3ccccc3c(=O)c3ccccc32)cc1 | 1300 nM | 1600 nM | inhibition [9]: 100%; Activity (K562 [5]): Dose-dependent effect; Activity (K562 [10]): Active
17 | COc1cc2c(c(OC)c1OC)-c1ccc(OC)c(=O)cc1[C@@H](NC(C)=O)CC2 [COLCHICINE] | 13 nM | – | Activity (K562 [11]): Active
18 | COc1cccc(N2CCN(C(=O)n3c4ccccc4c(=O)c4cccnc43)CC2)c1 | 32 nM | 450 nM | –
19 | COc1ccc2c(c1)c(=O)c1ccccc1n2C(=O)N1CCN(c2ccccc2OC)CC1 | 1100 nM | 3500 nM | –
20 | O=C(N1CCN(c2ccccc2)CC1)n1c2ccccc2c(=O)c2ccccc21 | 390 nM | 900 nM | –
21 | O=C(N1CCN(c2ccccc2Cl)CC1)n1c2ccccc2c(=O)c2ccccc21 | 4800 nM | 7100 nM | –
22 | COc1cccc(C(=O)n2c3ccccc3c(=O)c3ccccc32)c1 | > 10000 nM | > 10000 nM | –

Row | Compound | IC50 (K562 [1]) | IC50 [2] | further results
23 | COc1ccccc1N1CCN(C(=O)n2c3ccccc3c(=O)c3cnccc32)CC1 | 670 nM | 3900 nM | –
24 | COc1ccc(C(=O)n2c3ccccc3c(=O)c3cc(C#N)ccc32)cc1 | 1300 nM | 1700 nM | –
25 | COc1ccc(C(=O)n2c3ccccc3c(=O)c3ccccc32)cc1O | 1300 nM | 680 nM | –
26 | COc1ccccc1C(=O)n1c2ccccc2c(=O)c2ccccc21 | 3900 nM | 5500 nM | –
27 | CC[C@]1(O)C[C@H]2CN(CCc3c([nH]c4ccccc34)[C@@](C(=O)OC)(c3cc4c(cc3OC)N(C)[C@H]3[C@@](O)(C(=O)OC)[C@H](OC(C)=O)[C@]5(CC)C=CCN6CC[C@]43[C@@H]65)C2)C1 | 12 nM | 130 nM | –
28 | COc1cc(N2CCN(C(=O)n3c4ccccc4c(=O)c4ccccc43)CC2)cc(OC)c1OC | > 10000 nM | > 10000 nM | –
29 | COc1cccc(N2CCN(C(=O)n3c4ccccc4c(=O)c4cc(C#N)ccc43)CC2)c1 | 190 nM | – | –
30 | O=C(c1ccccc1)n1c2ccccc2c(=O)c2ccccc21 | > 10000 nM | > 10000 nM | –
31 | COC(=O)Nc1nc2cc(C(=O)c3cccs3)ccc2[nH]1 [NOCODAZOLE] | 220 nM | 760 nM | –
32 | COc1ccccc1N1CCN(C(=O)n2c3ccccc3c(=O)c3cc(C#N)ccc32)CC1 | 830 nM | 3400 nM | –
33 | COc1cccc(N2CCN(C(=O)n3c4ccccc4c(=O)c4cnccc43)CC2)c1 | 230 nM | 720 nM | –
34 | O=C(N1CCN(c2ccc(Cl)cc2)CC1)n1c2ccccc2c(=O)c2ccccc21 | 6100 nM | > 10000 nM | –
35 | O=C(N1CCN(c2cccnc2)CC1)n1c2ccccc2c(=O)c2ccccc21 | 620 nM | 2900 nM | –
36 | O=C(N1CCN(c2cccc(Cl)c2)CC1)n1c2ccccc2c(=O)c2ccccc21 | 38 nM | 600 nM | –
37 | COc1cccc(N2CCN(C(=O)n3c4ccccc4c(=O)c4cc(N)ccc43)CC2)c1 | 440 nM | 1250 nM | –
38 | Nc1ccc(N2CCN(C(=O)n3c4ccccc4c(=O)c4ccccc43)CC2)cc1 | > 10000 nM | > 10000 nM | –
39 | COc1ccc(N2CCN(C(=O)n3c4ccccc4c(=O)c4ccccc43)CC2)cc1 | > 10000 nM | > 10000 nM | –
40 | COc1ccc(C(=O)n2c3ccccc3c(=O)c3cc(OC)ccc32)cc1 | 3900 nM | 1400 nM | –
41 | COc1cccc(N2CCN(C(=O)n3c4ccc(C#N)cc4c(=O)c4cc(OC)ccc43)CC2)c1 | > 10000 nM | > 10000 nM | –
42 | COc1ccccc1N1CCN(C(=O)n2c3ccccc3c(=O)c3cc([N+](=O)[O-])ccc32)CC1 | > 10000 nM | > 10000 nM | –
43 | O=C(N1CCN(c2cccc([N+](=O)[O-])c2)CC1)n1c2ccccc2c(=O)c2ccccc21 | 200 nM | 560 nM | –
44 | N#Cc1cccc(N2CCN(C(=O)n3c4ccccc4c(=O)c4ccccc43)CC2)c1 | 45 nM | 520 nM | –
